Assay results: patent US20260363245A1, “HETEROCYCLIC COMPOUND AND HARMFUL ARTHROPOD CONTROL COMPOSITION CONTAINING SAME” (SUMITOMO CHEMICAL COMPANY, LIMITED, priority 2022, published 2026)

What was measured:
Type in all cases: in vivo
[1] = test system: cotton worm (Spodoptera litura); assay: Test Method 3: cotton worm, sprayed cabbage seedling, second-instar larvae; details: 500 ppm, spray 20 mL/seedling, 5 days
Procedure: (§1) Each test compound is made to a formulation according to a similar method to that described in the Formulation Example 1, and thereto is added water containing 0.03 v/v % of Shindain (registered trademark) to prepare a diluted solution containing a prescribed concentration of the test compound.
(§2) Cabbage (Brassicae oleracea) seedling (on the developmental stage of the second to third true leaf) is planted in a container, and the diluted solutions are sprayed to the seedling at a ratio of 20 mL/seedling. Thereafter, the aerial part of the seedling is cut out and then is installed into a container in which a filter paper is placed at the bottom of the container. Five of second-instar larvae of cotton worm (Spodoptera litura) are released into the container. After 5 days, the number of the surviving insects is counted, and the mortality of insects is calculated by the following equation.
(§3) Mortality(%)=(1−Number of surviving insects/5)×100

[2] = test system: diamondback moth (Plutella xylostella); assay: Test Method 4: diamondback moth, sprayed cabbage seedling, second-instar larvae; details: 500 ppm, spray 20 mL/seedling, 5 days
Procedure: as §1
as §2, with “diamondback moth (Plutella xylostella)” for “cotton worm (Spodoptera litura)”
as §3

[3] = test system: Western corn rootworm (Diabrotica virgifera virgifera); assay: Test Method 5: Western corn rootworm, immersed corn seedling; details: 200 ppm; corn seedling immersed 30 seconds; second-instar larvae; 5 days
Procedure: Each 1 mg of the test compounds is dissolved in 50 μL of a mixed solution consisting of 5% of polyoxyethylene sorbitan mono-cocoate and 95% of acetone by volume ratio. Thereto is added water containing 0.03% by volume of Shindain (registered trademark) to prepare a diluted solution containing a prescribed concentration of the test compound.
A young seedling of corn (Zea mays) is immersed into the diluted solution for 30 seconds. Thereafter, two seedlings are installed in a plastic petri dish ([…]), and 10 of second-instar larvae of Western corn rootworm (Diabrotica virgifera virgifera) are released into the dish. After 5 days, the number of the dead insects is counted, and the mortality of insects is calculated by the following equation.
Mortality(%)=(Number of dead insects/10)×100

[4] = test system: housefly (Musca domestica); assay: Test Method 8: housefly female adults, coated glass vial; details: 40 mg/m^2 coated vial, 1 day
Procedure: An acetone solution which is adjusted to 800 ppm of each test compound is poured into a 20 mL glass vial, and the test compound is coated uniformly on inner face of the vial so as to 40 mg/m^2 of the test compound treated, and the vial is then dried.
5 housefly (Musca domestica) female adults are released into the treated vial, and the vial is then covered with lid. After the prescribed time, the state of the housefly is examined, and the mortality is calculated by the following equation.
(§4) Mortality(%)=(Number of dead insects/Number of tested insects)×100

[5] = test system: cotton aphids (Aphis gossypii); assay: Test Method 11: cotton aphid, foliar spray on cucumber seedling (Formulation Example 5); details: 200 ppm; foliar spray 10 mL/seedling; 5 days after spraying
Procedure: Each test compound is made to a formulation according to a similar method to that described in the Formulation Example 5, and thereto is added water containing 0.03 v/v % of Shindain (registered trademark) to prepare a diluted solution containing a prescribed concentration of the test compound.
(§5) Cucumber (Cucumis sativus) seedling (on the developmental stage of the second true leaf) is planted in a container and approximately 30 cotton aphids (Aphis gossypii) (all developmental stages of life) are released onto the leaves of the cucumber. After 1 day, the diluted solutions are sprayed to the seedling at a ratio of 10 mL/seedling. Further, after 5 days, the number of the surviving insects is examined and the controlling value is calculated by the following equation.
Controlling value (%)={1−(Cb×Tai)/(Cai×)}×100
wherein the symbols in the formula represent the following descriptions. • Cb: Number of the test insects in untreated group; • Cai: Number of the surviving insects at the time of the investigation in untreated group; • Tb: Number of the test insects in treated group; • Tai: Number of the surviving insects at the time of the investigation in treated group; • Here the “untreated group” represents a group where the similar treatment procedure to that of the treated group except not using the test compound is done.

[6] = test system: common house mosquito (Culex pipiens pallens); assay: Test Method 12: common house mosquito larvae in diluted solution; details: 3.5 ppm; last instar larvae; 1 day
Procedure: Each test compound is formulated to a test formulation according to a similar method to that described in the Formulation Example 1, and water is added in preparing for a diluted solution containing a prescribed concentration of the test compound.
Into the diluted solution, 30 last instar larvae of common house mosquito (Culex pipiens pallens) are released, and after 1 day, the state of the house mosquito larvae is examined, and the mortality is calculated by the following equation.
as §4

[7] = test system: cotton aphids (Aphis gossypii); assay: Test Method 1: cotton aphid, foliar spray on cucumber seedling (Formulation Example 1); details: 500 ppm; foliar spray 10 mL/seedling; 5 days after spraying
Procedure: as §1, §5
Controlling value(%)={1−(Cb×Tai)/(Cai×Tb)}×100
wherein the symbols in the formula represent the following descriptions. • Cb: Number of the test insects in untreated group; • Cai: Number of the surviving insects at the time of the investigation in untreated group; • Tb: Number of the test insects in treated group; • Tai: Number of the surviving insects at the time of the investigation in treated group;
Here the “untreated group” represents a group where the similar treatment procedure to that of the treated group except not using the test compound is done.

Row | SMILES | mortality [1] [%] | mortality [2] [%] | mortality [3] [%] | mortality [4] [%] | controlling value [5] [%] | mortality [6] | controlling value [7] [%]
1 | CCS(=O)(=O)c1c(N2CCn3nc(OC(F)F)cc3C2=O)nc2ccc(I)cn12 [compound 3] | ≥ 80 | ≥ 80 | ≥ 80 | ≥ 80 | ≥ 90 | greater than 90% | 
2 | CCS(=O)(=O)c1cc(C2CC2)cnc1N1CCn2nc(OC(F)F)cc2C1=O [compound 6] | ≥ 80 | ≥ 80 | ≥ 80 |  | ≥ 90 | greater than 90% | ≥ 90
3 | CCS(=O)(=O)c1cc(Br)cnc1N1CCn2nc(C(F)(F)F)cc2C1=O [compound 7] |  |  | ≥ 80 |  | ≥ 90 | greater than 90% | ≥ 90
4 | CCS(=O)(=O)c1cc(Br)cnc1N1CCn2nc(OC(F)F)cc2C1=O [compound 8] |  | ≥ 80 |  |  | ≥ 90 |  | ≥ 90
5 | CCS(=O)(=O)c1cc(-c2ccc(F)cc2)cnc1N1CCn2nc(C(F)(F)F)cc2C1=O [compound 9] | ≥ 80 | ≥ 80 | ≥ 80 |  | ≥ 90 |  | ≥ 90
6 | CCS(=O)(=O)c1cc(-c2ccc(Cl)cc2)cnc1N1CCn2nc(C(F)(F)F)cc2C1=O [compound 11] | ≥ 80 | ≥ 80 | ≥ 80 | ≥ 80 | ≥ 90 |  | ≥ 90
7 | CCS(=O)(=O)c1cc(-c2cc(Cl)cc(Cl)c2)cnc1N1CCn2nc(C(F)(F)F)cc2C1=O [compound 13] | ≥ 80 | ≥ 80 |  |  |  | greater than 90% | ≥ 90
8 | CCS(=O)(=O)c1cc(-c2ccc(Cl)cc2)cnc1N1CCn2nc(OC(F)F)cc2C1=O [compound 16] |  |  |  |  | ≥ 90 |  | 
9 | CCS(=O)(=O)c1cc(-c2ccc(F)cc2)cnc1N1CCn2nc(OC(F)F)cc2C1=O [compound 19] | ≥ 80 |  |  |  | ≥ 90 | greater than 90% | ≥ 90
10 | CCS(=O)(=O)c1cc(-c2cccc(C#N)n2)cnc1N1CCn2nc(C(F)(F)F)cc2C1=O [compound 23] |  |  |  |  |  | greater than 90% | ≥ 90
11 | CCS(=O)(=O)c1cc(-c2cc(Cl)ccn2)cnc1N1CCn2nc(C(F)(F)F)cc2C1=O [compound 27] |  | ≥ 80 |  |  |  | greater than 90% | 
12 | CCS(=O)(=O)c1c(N2CCn3nc(Br)cc3C2=O)nc2ccc(I)cn12 [compound 46] |  |  |  |  | ≥ 90 |  | 
